Common to all, as to assay type: in vivo
For data set [1], the system named is winter wheat, TRZAW. Kind of data set: Method C: safener seed treatment, herbicide and safener tank mix post-emergence, visual % crop damage. The protocol: (§1) For the safener seed treatment, sufficient seeds were weighed into screw top glass bottles approximately twice the volume of the seeds.
(§2) The safener (mefenpyr-diethyl, formulated as suspension concentrate (SC)) was weighed out so that the required rates (g a.i./kg seed) would be obtained, dissolved in water (1 ml water per 10 g of seeds), and added to the seeds to produce a slurry.
(§3) The bottles were capped and then placed in an overhead shaker (set at medium speed for up to 1 hour) so that the seeds were evenly coated with the slurry. The bottles were uncapped and the seeds were sown as described above.
(§4) For the seed treatment process, the blind formulation (the SC formulation without the safener mefenpyr-diethyl) was used as seed treatment as described above.
Post-emergence application was done when the plants had reached growth stage BBCH11.
The safener (mefenpyr-diethyl) was formulated as wettable powder (WP).
(§5) The combination of herbicide and safener was applied as a tank mix.
(§6) After application, the test plants were kept in the greenhouse under good growth conditions.
(§7) Values in the table below are mean values from at least 3 replicates.

Data set [2] has as its system winter wheat, TRZAW. The experiment in a line: Method A: safener seed treatment, herbicide post-emergence, visual % crop damage. The note with it: safener seed treatment 0.5 g/kg only, no herbicide. As to the method: as §1, §2, §3, §4
Post-emergence application of the herbicide was done when the plants had reached growth stage BBCH11.
as §6, §7

Data set [3] concerns winter wheat, TRZAW. Kind of data set: Method D: safener seed treatment, herbicide and safener tank mix pre-emergence, visual % crop damage. As to the method:
as §1, §2, §3, §4, §5, §6, §7

[4] abbreviates: safener seed treatment 0.5 g/kg only, no herbicide.

Take `CCOC(=O)C1=NN(c2ccc(Cl)cc2Cl)C(C)(C(=O)OCC)C1` (centres unmarked) [Safener seed treatment, ethyl 1-(2,4-dichlorophenyl)-5-(ethoxycarbonyl)-5-methyl-2-pyrazoline-3-carboxylate]: the “% crop damage” value in the data set with winter wheat, TRZAW [1] (safener 200 g/ha in tank mix only, post-emergence, 14 days after application) turned out to be 5%; in the data set on winter wheat, TRZAW [1] (setting [4]), 0%; with winter wheat, TRZAW [2] it was 0%; in the data set on winter wheat, TRZAW [3] (safener 200 g/ha in tank mix only, pre-emergence, 14 days after application), 5%; with winter wheat, TRZAW [3] (setting [4]), 2%.

(Values after US20210227824A1, “METHOD OF REDUCING CROP DAMAGE” (Bayer Aktiengesellschaft, priority 2018, published 2021).)
